Data reported in PubChem BioAssay (NCI).
“And” between values parts separate entries of the source, which are not always exact repeats. Equal entries are not always repeated.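 Dose response: 5 concentrations. Exposure: 48 h. Format: 96-well plates. Endpoint: linear interpolation; highest concentration if not reached. Here, GI50 denotes the concentration required for 50% inhibition of growth. TGI marks complete inhibition of growth.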

How the values were obtained:
Test in all cases: NCI anticancer screen, dose series, 48 h
OVCAR-5 ovarian = system: OVCAR-5 ovarian
T-47D breast = system: T-47D breast
HT29 colon = system: HT29 colon
KM12 colon = system: KM12 colon
UACC-257 melanoma = system: UACC-257 melanoma
NCI/ADR-RES ovarian = system: NCI/ADR-RES ovarian
A498 renal = system: A498 renal
SNB-75 CNS = system: SNB-75 CNS
DMS 114 small cell lung = system: DMS 114 small cell lung
LXFL 529 NSCLC = system: LXFL 529 NSCLC
KM20L2 colon = system: KM20L2 colon
M19-MEL melanoma = system: M19-MEL melanoma

| SMILES | GI50 (OVCAR-5 ovarian) | TGI (OVCAR-5 ovarian) | GI50 (T-47D breast) | TGI (T-47D breast) | GI50 (HT29 colon) | TGI (HT29 colon) | GI50 (KM12 colon) | TGI (KM12 colon) | GI50 (UACC-257 melanoma) | TGI (UACC-257 melanoma) | GI50 (NCI/ADR-RES ovarian) | TGI (NCI/ADR-RES ovarian) | GI50 (A498 renal) | TGI (A498 renal) | GI50 (SNB-75 CNS) | TGI (SNB-75 CNS) | TGI (DMS 114 small cell lung) | TGI (LXFL 529 NSCLC) | TGI (KM20L2 colon) | TGI (M19-MEL melanoma) |
| --- | --- | --- | --- | --- | --- | --- | --- | --- | --- | --- | --- | --- | --- | --- | --- | --- | --- | --- | --- | --- |
| CCCCCCCCCCCCCC1=NCCN1CCO | 5.47 µM | 18.3 µM | 4.57 µM | 13.1 µM | 2.81 µM | > 28.6 µM | 3 µM | 9 µM | 12.6 µM | 36.9 µM | 5 µM | 21.2 µM | 2.75 µM | 14.6 µM | 2.3 µM | 8.16 µM |  |  |  |  |
| C=CC(C1=CC(=O)C(OC)=CC1=O)c1ccccc1 (centres undefined) |  | 39 µM |  | 8.9 µM |  | 42 µM |  | 34.6 µM |  | 34.8 µM |  | 44.8 µM |  | > 100 µM |  | 39.1 µM |  |  |  |  |
| COC1CCN(C(=O)c2cc(Cc3n[nH]c(=O)c4ccccc34)ccc2F)CC1 | > 100 µM | > 100 µM | 53.6 µM | > 100 µM | > 100 µM | > 100 µM | > 100 µM | > 100 µM | > 83.2 µM | > 100 µM | > 76.8 µM | > 100 µM | > 41.2 µM | > 100 µM | 9.12 µM | > 100 µM |  |  |  |  |
| CCOC(=O)n1cc(C2=C(c3cn(C)c4ccccc34)COC2=O)c2ccccc21 | 0.462 µM | > 100 µM | 0.338 µM | > 100 µM | 0.0464 µM |  | 0.0471 µM | > 100 µM | 3.52 µM | > 100 µM | 0.0531 µM |  | 0.0391 µM | 0.644 µM | 0.0248 µM | 1.22 µM |  |  |  |  |
| CCOC(=O)CSC(=O)NCCCl |  | > 100 µM |  |  |  | > 100 µM |  | > 100 µM |  | > 100 µM |  |  |  | > 100 µM |  | > 100 µM | > 100 µM | > 100 µM | > 100 µM |  |
| COC(=O)C(=O)C(C(=O)C(=O)Nc1nc2ccc(C)cc2s1)c1nc2ccc([N+](=O)[O-])cc2[nH]c1=O (centres undefined) |  | > 100 µM |  | > 100 µM |  | > 100 µM |  | > 100 µM |  | > 100 µM |  | > 100 µM |  | > 100 µM |  | > 100 µM |  |  |  |  |
| O=C(CN(/C=C/C(=O)C(F)(F)F)c1ccc(Cl)cc1)c1ccccc1 | 15.6 µM | 40.7 µM | 4.08 µM | > 100 µM | 25.8 µM | > 100 µM | 10.8 µM | 36.6 µM | 14.5 µM | 34.9 µM | 14.1 µM | 30.3 µM | 22 µM | 43.1 µM | 12.9 µM | 41.1 µM |  |  |  |  |
| c1cc2[nH]ncc2cc1-c1nc2ccc3[nH]ncc3c2c2c1CCCC2 | 3.06 µM | 18.5 µM | 2.02 µM | 12.3 µM | 1.59 µM | 13.1 µM | 0.563 µM | 11.5 µM | 1.67 µM | 8.21 µM | 2.08 µM | 16.4 µM | 0.273 µM | 1.82 µM | 0.998 µM | 4.36 µM |  |  |  |  |
| CCN(CC)CCOc1ccccc1/C=C/c1noc2ccccc12 |  | 25.1 µM |  | 32.4 µM |  | 16 µM |  | 31.5 µM |  | 15.3 µM |  | 38.8 µM |  | 31.3 µM |  | 22.2 µM |  |  |  |  |
| C=CC(=O)NCc1cccc(Nc2ncc(Br)c(NCCCNC(=O)C3CCC3)n2)c1 | 0.709 µM and 2.56 µM | 12.5 µM and 15.6 µM | 4.86 µM and 5.07 µM | 12.5 µM and 22.5 µM | 1.67 µM and 0.27 µM | 12.5 µM and 4.83 µM | 0.806 µM and 0.861 µM | 12.5 µM and > 25 µM | 2.57 µM and 3.46 µM | 12.5 µM and 20.6 µM | 7.28 µM and 7.94 µM | 12.5 µM and > 25 µM | 0.549 µM | 2.08 µM | 0.113 µM and 0.0839 µM | 0.637 µM and 1.02 µM |  |  |  |  |
| COc1ccc(C(=O)COC(=O)[C@H](C[Se][Se]C[C@H](NC(=O)c2ccc(Br)cc2F)C(=O)OCC(=O)c2ccc(OC)cc2)NC(=O)c2ccc(Br)cc2F)cc1 | 0.816 µM | 2.54 µM | 1.73 µM | 6.03 µM | 0.879 µM | 7.48 µM | 0.376 µM | 1.55 µM | 2.25 µM | 5.31 µM | 0.399 µM | 1.39 µM | 0.896 µM | 8.84 µM | 0.347 µM | 1.26 µM |  |  |  |  |
| N/N=C(\C(=O)Nc1ccc(Cl)cc1Cl)C(c1cnc2ccccc2n1)[N+](=O)[O-] (centres undefined) |  | > 100 µM |  | > 100 µM |  | > 100 µM |  | > 100 µM |  | > 100 µM |  | > 100 µM |  | > 100 µM |  | > 100 µM |  |  |  |  |
| COC(=O)[C@]12CC[C@@H](C)[C@H](C)[C@@H]1C1=CC[C@@H]3[C@@]4(C)C(C=O)=C[C@@](C)(COC(C)=O)C4=CC[C@@]3(C)[C@]1(C)CC2 | 5.75 µM | 21.7 µM | 3.79 µM | 27.3 µM | 3.17 µM | 11 µM | 3.49 µM | 14.9 µM | 4.19 µM | 17.2 µM | 5.35 µM | 18.9 µM | 10.8 µM | 24 µM | 2.91 µM | 19.2 µM |  |  |  |  |
| COC(=O)C(C(=O)C(=O)Nc1nc(=S)[nH][nH]1)c1csc(-n2nc(-c3ccccc3)cc2-c2ccccc2)n1 (centres undefined) |  | > 100 µM |  |  |  | > 100 µM |  | > 100 µM |  | > 100 µM |  |  |  | > 100 µM |  | 78.5 µM |  | > 100 µM | > 100 µM | > 100 µM |
| O=[N+]([O-])c1ccc(Sc2ncnc3nc[nH]c23)c2nonc12 | 10.3 µM | 22.6 µM | 2.09 µM | > 100 µM | 3.88 µM | 20.6 µM | 15.1 µM | > 100 µM | 4.52 µM | 18.7 µM | 5.16 µM | 28.9 µM | 8.46 µM | 20.5 µM | 1.83 µM | 14 µM |  |  |  |  |
| O=C1c2ccccc2S(=O)(=O)N1CSC(=S)N1CCCCC1 | > 100 µM | > 100 µM | > 100 µM | > 100 µM | > 29.2 µM | > 100 µM | > 55.7 µM | > 100 µM | > 100 µM | > 100 µM | > 100 µM | > 100 µM | > 100 µM | > 100 µM | > 100 µM | > 100 µM |  |  |  |  |
| COc1ccc(C(SCC(N)C(=O)O)(c2ccccc2)c2ccccc2)cc1 (centres undefined) | 4.82 µM | > 100 µM | 0.409 µM | > 100 µM | 0.429 µM | > 100 µM | 0.239 µM | 21.3 µM | 26.3 µM | > 100 µM | 2.12 µM | 33.7 µM | 20.8 µM | > 84.6 µM | 0.447 µM | 88.1 µM |  |  |  |  |
